Test results reported in PMC9920986 (Molecules, 2023).

Test system: not listed separately
Experiment: Antiproliferative assay (MTT colorimetric test, 72 h)
Assay type: cell-based
Conditions: human, n.a. = not active, read-out: A549, CC50
Source text: (§1) The cytotoxicity of the synthesized oxindoles was studied using the A549 cell line in which the levels of NQO2 are increased (Table 4). […] The cytotoxicity of the compounds may be due to the inhibition of other enzymes associated with the activation of apoptosis in cancer cells, for example GSK3b or tyrosine kinases, or with the general non-specific toxicity of these compounds. Thus, the influence of NQO2 on A549 cell viability has not been established.
(§2) The A549 cells were maintained in F12-K (Gibco, Paisley, UK) supplemented with 10% fetal bovine serum (FBS, Gibco, UK), penicillin (100 UI mL^−1), streptomycin (100 µg mL^−1) and GlutaMax (2 mM, Gibco, UK). All cells line were cultured under a humidified atmosphere of 95% air/5% CO2 at 37 °C. Subconfluent monolayers, in the log growth phase, were harvested by a brief treatment with TrypLE Express solution (Gibco, UK) in phosphate-buffered saline (PBS, Capricorn Scientific, Ebsdorfergrund, Germany) and washed three times in serum-free PBS. The number of viable cells was determined by trypan blue exclusion.
(§3) The effects of the synthesized compounds on cell viability were determined using the MTT colorimetric test. All examined cells were diluted with the growth medium to 3.5 × 10^4 cells per mL and the aliquots (7 × 10^3 cells per 200 μL) were placed in individual wells in 96-multiplates (Eppendorf, Germany) and incubated for 24 h. […] After incubation, the cells were then treated with 40 μL MTT solution (3-(4,5-dimethylthiazol-2-yl)-2,5-diphenyltetrazolium bromide, 5 mg mL^−1 in PBS) and incubated for 4 h. After an additional 4 h incubation, the medium with MTT was removed and DMSO (150 μL) was added to dissolve the formazan crystals. The plates were shaken for 10 min. The optical density of each well was determined at 560 nm using a microplate reader GloMax Multi+ (Promega, Madison, WI, USA). Each of the tested compounds was evaluated for cytotoxicity in three separate experiments.

| Molecule | CC50 at 72 h |
| --- | --- |
| O=C1Nc2ccccc2C1=Cc1ccco1 [Compound 34, 3-(2-furylmethylidene)-2-oxindole] | 595 ± 25.4 µM |
| COc1ccc(C(=O)CC2(O)C(=O)Nc3ccc(Br)cc32)cc1 (centres unmarked) [Compound 50, 3-hydroxy-5-bromo-3-[2-(4-methoxyphenyl)-2-oxoethyl]-2-oxindole] | 474 ± 18.2 µM |
| COc1cc(C=C2C(=O)Nc3ccc(NC(=O)c4ccco4)cc32)cc(OC)c1OC [Compound 25, 3-(3,4,5-trimethoxybenzylidene)-5-furoylamino-2-oxindole] | 201 ± 22.7 µM |
| O=C1Nc2ccccc2C1=Cc1ccc(O)cc1 [Compound 14, 3-(4-hydroxybenzylidene)-2-oxindole] | 80.9 ± 12.2 µM |
| O=C1Nc2ccc(Br)cc2C1=Cc1ccc(Br)cc1 (mixture of isomers) [Compound 31, 3-(4-bromobenzylidene)-5-bromo-2-oxindole] | 242 ± 3.19 µM |
| O=C1Nc2ccc(NC(=O)c3ccccc3)cc2C1=Cc1ccccn1 [Compound 6, (E,Z)-3-(2-Pyridinylmethylidene)-5-benzoylamino-2-oxindole] | 17.4 ± 1.8 µM |
| O=C1Nc2ccc(Br)cc2C1=Cc1ccncc1 [Compound 11, 5-bromo-3-(4-pyridinylmethylidene)-2-oxindole] | 22.3 ± 1.42 µM |
| CC(=O)Nc1ccc2c(c1)C(=Cc1ccccn1)C(=O)N2 [Compound 5, (E,Z)-3-(2-Pyridinylmethylidene)-5-acetamido-2-oxindole] | 136 µM |
| COc1cc(C=C2C(=O)Nc3ccccc32)cc(OC)c1OC [Compound 23, (E,Z)-3-(3,4,5-Trimethoxybenzylidene)-2-oxindole] | 25.7 µM |
| COc1ccc(C=C2C(=O)Nc3ccc(NC(=O)c4ccccc4)cc32)cc1 [Compound 21, (E,Z)-3-(4-Methoxybenzylidene)-5-benzoylamino-2-oxindole] | 42.3 ± 8.3 µM |
| Cc1ccc(C(=O)CC2(O)C(=O)Nc3ccccc32)cc1 (centres unmarked) [Compound 52, 3-hydroxy-3-[2-(4-methylphenyl)-2-oxoethyl]-2-oxindole] | 171 ± 13.4 µM |
| O=C1Nc2ccc(Br)cc2C1=Cc1ccccn1 [Compound 3, 5-bromo-3-(2-pyridinylmethylidene)-2-oxindole] | 90.6 ± 1.5 µM |
| O=C1Nc2ccc([N+](=O)[O-])cc2C1=Cc1cccnc1 [Compound 9, 5-nitro-3-(3-pyridinylmethylidene)-2-oxidole] | 429 ± 24 µM |

Test system: A549 cell line
Experiment: as above
Assay type: cell-based
Conditions: n.a. = not active
Source text: as §1, §2, §3

| Molecule | CC50 |
| --- | --- |
| (E,Z)-3-(4-Fluorobenzylidene)-2-oxindole [Compound 33] | 38.6 ± 10.4 µM |

Test system: NQO2
Experiment: not given
Conditions: Figure 1; cited from earlier work

| Molecule | IC50 |
| --- | --- |
| COc1ccc2[nH]cc(CCNC(C)=O)c2c1 [Melatonin] | 6 µM |
| COC(=O)Nc1ccc2[nH]cc(CCNC(C)=O)c2c1 [MCA-NAT] | 0.037 µM |

Same assay, conditions: cited from earlier work

| Molecule | NQO2 inhibition concentration range |
| --- | --- |
| COc1ccc2[nH]cc(CCNC(C)=O)c2c1 [Melatonin] | ~50 µM |

Target: T1, human recombinant NRH:quinone oxidoreductase (NQO2) (Homo sapiens, UniProt P16083)
T1 construct: purchased Sigma Q0380
T1 sequence (P16083 1-231): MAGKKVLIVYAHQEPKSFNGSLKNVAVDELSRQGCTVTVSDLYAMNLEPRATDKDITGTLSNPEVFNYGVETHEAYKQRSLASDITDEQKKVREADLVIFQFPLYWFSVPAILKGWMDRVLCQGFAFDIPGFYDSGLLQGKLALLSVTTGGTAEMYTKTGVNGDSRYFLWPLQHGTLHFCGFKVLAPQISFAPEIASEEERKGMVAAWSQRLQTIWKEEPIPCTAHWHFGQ
Experiment: biochemical
Conditions: not given
Procedure: The inhibition activity of all synthesized compounds at a concentration of 10 µM was preliminarily tested in vitro using human recombinant NRH:quinone oxidoreductase (NQO2).
The activity of recombinant human NQO2 (Sigma #Q0380, St. Louis, […], USA) was evaluated kinetically using menadione and N-benzyl-dihydronicotinamide (BNAH) as the substrate and co-substrate, respectively. All reagents and test compounds were dissolved in 50 mM Hepes-KOH (pH 7.4) containing 1 mM of β-octyl-D-glucopyranoside, 0.1 mg/mL BSA and 1 μM FAD. […] The solutions of the test compounds were pre-incubated for 5 min with 50 μL of human recombinant NQO2 (final concentration 42 ng/mL). Then, 25 μL of menadione was introduced at a final concentration of 100 μM. The reaction was started with 25 μL of 100 μM BNAH. The fluorescence of the co-substrate BNAH was followed at wavelengths of 370/440 nm at 37 °C using an Infinite M200 Pro microplate reader (Tecan, Grödig, Austria). The fluorescence data was fit according to a one-phase decay nonlinear regression to obtain slope values with Prism 8.0 (GraphPad Inc., San Diego, CA, USA). The activity in sample wells were normalized against negative control and enzyme-blank samples.

| Molecule | IC50 |
| --- | --- |
| COc1cc(C=C2C(=O)Nc3ccc(NC(=O)c4ccco4)cc32)cc(OC)c1OC [Compound 25, 3-(3,4,5-trimethoxybenzylidene)-5-furoylamino-2-oxindole] | 0.66 ± 0.02 µM |
| O=C1Nc2ccccc2C1=Cc1ccc(O)cc1 [Compound 14, 3-(4-hydroxybenzylidene)-2-oxindole] | > 50 µM |
| CC(=O)Nc1ccc2c(c1)C(=Cc1ccccn1)C(=O)N2 [Compound 5, (E,Z)-3-(2-Pyridinylmethylidene)-5-acetamido-2-oxindole] | 41.1 ± 2.44 µM |
| O=C1Nc2ccc([N+](=O)[O-])cc2C1=Cc1cccnc1 [Compound 9, 5-nitro-3-(3-pyridinylmethylidene)-2-oxidole] | > 50 µM |

Same assay, conditions: inhibition at 10 µM concentration

| Molecule | NQO2 Inhibition, % |
| --- | --- |
| (E,Z)-3-(4-Fluorobenzylidene)-2-oxindole [Compound 33] | 19.46% |

Same assay, conditions: read-out: NQO2 Inhibition, %

| Molecule | inhibition at 10 µM |
| --- | --- |
| O=C1Nc2ccccc2C1=Cc1ccco1 [Compound 34, 3-(2-furylmethylidene)-2-oxindole] | 59.9% |
| COc1ccc(C(=O)CC2(O)C(=O)Nc3ccc(Br)cc32)cc1 (centres unmarked) [Compound 50, 3-hydroxy-5-bromo-3-[2-(4-methoxyphenyl)-2-oxoethyl]-2-oxindole] | 78.8% |
| O=C1Nc2ccc(Br)cc2C1=Cc1ccc(Br)cc1 (mixture of isomers) [Compound 31, 3-(4-bromobenzylidene)-5-bromo-2-oxindole] | 68.6% |
| O=C1Nc2ccc(NC(=O)c3ccccc3)cc2C1=Cc1ccccn1 [Compound 6, (E,Z)-3-(2-Pyridinylmethylidene)-5-benzoylamino-2-oxindole] | 43.1% |
| O=C1Nc2ccc(Br)cc2C1=Cc1ccncc1 [Compound 11, 5-bromo-3-(4-pyridinylmethylidene)-2-oxindole] | 41.9% |

Same assay, conditions: recombinant human NQO2, 100 μM menadione, 100 μM BNAH; read-out: NQO2 IC50 ± SEM

| Molecule | IC50 |
| --- | --- |
| (E,Z)-3-(4-Fluorobenzylidene)-2-oxindole [Compound 33] | > 50 µM |
| COc1cc(C=C2C(=O)Nc3ccccc32)cc(OC)c1OC [Compound 23, (E,Z)-3-(3,4,5-Trimethoxybenzylidene)-2-oxindole] | 1.6 ± 0.14 µM |
| COc1ccc(C=C2C(=O)Nc3ccc(NC(=O)c4ccccc4)cc32)cc1 [Compound 21, (E,Z)-3-(4-Methoxybenzylidene)-5-benzoylamino-2-oxindole] | > 50 µM |
| Cc1ccc(C(=O)CC2(O)C(=O)Nc3ccccc32)cc1 (centres unmarked) [Compound 52, 3-hydroxy-3-[2-(4-methylphenyl)-2-oxoethyl]-2-oxindole] | > 50 µM |
| O=C1Nc2ccc(Br)cc2C1=Cc1ccccn1 [Compound 3, 5-bromo-3-(2-pyridinylmethylidene)-2-oxindole] | > 50 µM |
